{
  "source": "patent US5364882A",
  "about": "“Oxysulfonyl urea ACAT inhibitors” (Warner-Lambert Company, priority 1992, dated 1994)",
  "key": {"[1]": {"assay": "APCC in vivo screen: blood cholesterol in rats on high fat, high cholesterol diet with 0.5% cholic acid", "design": "species or system male Sprague-Dawley rats", "settings": "30 mg/kg single dose at 4 PM, high cholesterol diet overnight, blood at 8 AM, vehicle CMC/Tween", "description": "In one in vivo screen designated APCC, male Sprague-Dawley rats (200 to 225 g) were randomly divided into treatment groups and dosed at 4 PM with either vehicle (CMC/Tween) or suspensions of compounds in vehicle (30 mg/kg). The normal chow diet was then replaced with a high fat, high cholesterol diet with 0.5% cholic acid. The rats consumed this diet ad libitum during the night and were sacrificed at 8 AM to obtain blood samples for cholesterol analysis using standard procedures. Statistical differences between mean cholesterol values for the same vehicle were determined using analysis of variance followed by Fisher's least significant test."}, "[2]": {"biological_target": "T1, acyl-CoA: cholesterol acyltransferase (ACAT) (Oryctolagus cuniculus, UniProt G1SFD9)", "T1 sequence (G1SFD9 1-524)": "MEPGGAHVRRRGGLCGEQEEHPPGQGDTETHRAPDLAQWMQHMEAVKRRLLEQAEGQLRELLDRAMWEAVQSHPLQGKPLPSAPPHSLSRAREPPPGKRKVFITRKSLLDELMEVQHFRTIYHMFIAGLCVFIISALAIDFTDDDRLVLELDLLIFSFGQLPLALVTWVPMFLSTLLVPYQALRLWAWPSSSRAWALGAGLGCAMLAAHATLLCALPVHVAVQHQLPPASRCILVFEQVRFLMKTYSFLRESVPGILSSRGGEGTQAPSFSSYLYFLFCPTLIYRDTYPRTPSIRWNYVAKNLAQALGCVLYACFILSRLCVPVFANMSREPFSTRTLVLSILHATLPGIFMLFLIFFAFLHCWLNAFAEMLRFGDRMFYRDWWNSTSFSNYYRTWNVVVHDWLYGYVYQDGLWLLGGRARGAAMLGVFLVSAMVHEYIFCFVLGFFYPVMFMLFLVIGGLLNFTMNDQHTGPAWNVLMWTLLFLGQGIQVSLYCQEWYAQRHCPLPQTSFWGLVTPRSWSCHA", "assay": "In vitro ACAT inhibition (IAI): formation of radiolabeled cholesterol oleate from radiolabeled oleic acid in rabbit intestinal microsomes", "type": "biochemical", "settings": "concentration required to inhibit enzyme activity by 50%", "procedure": "The ability of representative compounds of the present invention to inhibit ACAT was measured using an in vitro test more fully described in F. J. Field and R. G. Salone, Biochemica et Biophysica 712:557-570 (1982). The test assesses the ability of a test compound to inhibit the acylation of cholesterol by oleic acid by measuring the amount of radiolabeled cholesterol oleate formed from radiolabeled oleic acid in a tissue preparation containing rabbit intestinal microsomes."}},
  "note": "pIC50: −log10 of the molar value.",
  "data": [
    {"smiles": "CCCCCCCCCCCCOS(=O)(=O)NC(=O)Nc1c(C(C)C)cccc1C(C)C.[Na]", "values": [
      {"measurement": "% Change (mg/dl) in cholesterol", "setting": "[1]", "result": -58, "unit": "%"}
    ]},
    {"smiles": "CCCCCCC(C)OS(=O)(=O)NC(=O)Nc1c(C(C)C)cccc1C(C)C", "note": "(racemic) [Example 6, (±) 1-Methylheptyl [[[2,6-bis(1-methylethyl)phenyl]amino]carbonyl]sulfamate]", "values": [
      {"measurement": "pIC50", "setting": "[2]", "result": 5.06},
      {"measurement": "% Change (mg/dl) in cholesterol", "setting": "[1]", "result": -43, "unit": "%"}
    ]},
    {"smiles": "CCCCCCCCCCC(C)OS(=O)(=O)NC(=O)Nc1c(C(C)C)cccc1C(C)C", "note": "(racemic) [Example 8, (±) 1-Methylundecyl [[[2,6-bis(1-methylethyl)phenyl]amino]carbonyl]sulfamate]", "values": [
      {"measurement": "% Change (mg/dl) in cholesterol", "setting": "[1]", "result": -68, "unit": "%"}
    ]},
    {"smiles": "CCCCCCOS(=O)(=O)NC(=O)Nc1c(C(C)C)cccc1C(C)C", "note": "[Example 1, Hexyl [[[2,6-bis(1-methylethyl)phenyl]amino]carbonyl]sulfamate]", "values": [
      {"measurement": "% Change (mg/dl) in cholesterol", "setting": "[1]", "result": -56, "unit": "%"}
    ]},
    {"smiles": "CCCCCCCCCCCCCCCCCCOS(=O)(=O)NC(=O)Nc1c(C(C)C)cccc1C(C)C", "note": "[Example 2, Octadecyl [[[2,6-bis(1-methylethyl)phenyl]amino]carbonyl]sulfamate]", "values": [
      {"measurement": "% Change (mg/dl) in cholesterol", "setting": "[1]", "result": -42, "unit": "%"}
    ]},
    {"smiles": "CCCCCCCCCCCCOS(=O)(=O)NC(=O)Nc1c(C(C)C)cccc1C(C)C", "note": "[Example 3, Dodecyl [[[2,6-bis(1-methylethyl)phenyl]amino]carbonyl]sulfamate]", "values": [
      {"measurement": "% Change (mg/dl) in cholesterol", "setting": "[1]", "result": -75, "unit": "%"}
    ]},
    {"smiles": "CCCCCCCCCCOS(=O)(=O)NC(=O)Nc1c(C(C)C)cccc1C(C)C", "note": "[Example 5, Decyl [[[2,6-bis(1-methylethyl)phenyl]amino]carbonyl]sulfamate]", "values": [
      {"measurement": "pIC50", "setting": "[2]", "result": "< 5.00"},
      {"measurement": "% Change (mg/dl) in cholesterol", "setting": "[1]", "result": -31, "unit": "%"}
    ]},
    {"smiles": "CC(C)c1cccc(C(C)C)c1NC(=O)NS(=O)(=O)Oc1c(C(C)C)cccc1C(C)C", "note": "[Example 7, 2,6-bis(1-methylethyl)phenyl [[[2,6-bis (1-methylethyl)phenyl]amino]carbonyl]sulfamate]", "values": [
      {"measurement": "pIC50", "setting": "[2]", "result": 4.46},
      {"measurement": "% Change (mg/dl) in cholesterol", "setting": "[1]", "result": -51, "unit": "%"}
    ]}
  ]
}
